From patent publication US9340590B2 (priority 2011, dated 2016) come the findings set out here.

Where two headings read alike, the source gives them in different places. Positions of bridges follow the written chain, without caps; N, C: chain ends. Non-standard residues stand in square brackets, D forms with d. Residues, ends and D or L forms follow the SMILES beside them. Trp(1-Me) = Cn1cc(C[C@H](N)C(=O)O)c2ccccc21

One test deals with hNav1.7 (Homo sapiens, UniProt Q15858). Description: cell-based.
Chain of hNav1.7 (Q15858 whole entry, looked up): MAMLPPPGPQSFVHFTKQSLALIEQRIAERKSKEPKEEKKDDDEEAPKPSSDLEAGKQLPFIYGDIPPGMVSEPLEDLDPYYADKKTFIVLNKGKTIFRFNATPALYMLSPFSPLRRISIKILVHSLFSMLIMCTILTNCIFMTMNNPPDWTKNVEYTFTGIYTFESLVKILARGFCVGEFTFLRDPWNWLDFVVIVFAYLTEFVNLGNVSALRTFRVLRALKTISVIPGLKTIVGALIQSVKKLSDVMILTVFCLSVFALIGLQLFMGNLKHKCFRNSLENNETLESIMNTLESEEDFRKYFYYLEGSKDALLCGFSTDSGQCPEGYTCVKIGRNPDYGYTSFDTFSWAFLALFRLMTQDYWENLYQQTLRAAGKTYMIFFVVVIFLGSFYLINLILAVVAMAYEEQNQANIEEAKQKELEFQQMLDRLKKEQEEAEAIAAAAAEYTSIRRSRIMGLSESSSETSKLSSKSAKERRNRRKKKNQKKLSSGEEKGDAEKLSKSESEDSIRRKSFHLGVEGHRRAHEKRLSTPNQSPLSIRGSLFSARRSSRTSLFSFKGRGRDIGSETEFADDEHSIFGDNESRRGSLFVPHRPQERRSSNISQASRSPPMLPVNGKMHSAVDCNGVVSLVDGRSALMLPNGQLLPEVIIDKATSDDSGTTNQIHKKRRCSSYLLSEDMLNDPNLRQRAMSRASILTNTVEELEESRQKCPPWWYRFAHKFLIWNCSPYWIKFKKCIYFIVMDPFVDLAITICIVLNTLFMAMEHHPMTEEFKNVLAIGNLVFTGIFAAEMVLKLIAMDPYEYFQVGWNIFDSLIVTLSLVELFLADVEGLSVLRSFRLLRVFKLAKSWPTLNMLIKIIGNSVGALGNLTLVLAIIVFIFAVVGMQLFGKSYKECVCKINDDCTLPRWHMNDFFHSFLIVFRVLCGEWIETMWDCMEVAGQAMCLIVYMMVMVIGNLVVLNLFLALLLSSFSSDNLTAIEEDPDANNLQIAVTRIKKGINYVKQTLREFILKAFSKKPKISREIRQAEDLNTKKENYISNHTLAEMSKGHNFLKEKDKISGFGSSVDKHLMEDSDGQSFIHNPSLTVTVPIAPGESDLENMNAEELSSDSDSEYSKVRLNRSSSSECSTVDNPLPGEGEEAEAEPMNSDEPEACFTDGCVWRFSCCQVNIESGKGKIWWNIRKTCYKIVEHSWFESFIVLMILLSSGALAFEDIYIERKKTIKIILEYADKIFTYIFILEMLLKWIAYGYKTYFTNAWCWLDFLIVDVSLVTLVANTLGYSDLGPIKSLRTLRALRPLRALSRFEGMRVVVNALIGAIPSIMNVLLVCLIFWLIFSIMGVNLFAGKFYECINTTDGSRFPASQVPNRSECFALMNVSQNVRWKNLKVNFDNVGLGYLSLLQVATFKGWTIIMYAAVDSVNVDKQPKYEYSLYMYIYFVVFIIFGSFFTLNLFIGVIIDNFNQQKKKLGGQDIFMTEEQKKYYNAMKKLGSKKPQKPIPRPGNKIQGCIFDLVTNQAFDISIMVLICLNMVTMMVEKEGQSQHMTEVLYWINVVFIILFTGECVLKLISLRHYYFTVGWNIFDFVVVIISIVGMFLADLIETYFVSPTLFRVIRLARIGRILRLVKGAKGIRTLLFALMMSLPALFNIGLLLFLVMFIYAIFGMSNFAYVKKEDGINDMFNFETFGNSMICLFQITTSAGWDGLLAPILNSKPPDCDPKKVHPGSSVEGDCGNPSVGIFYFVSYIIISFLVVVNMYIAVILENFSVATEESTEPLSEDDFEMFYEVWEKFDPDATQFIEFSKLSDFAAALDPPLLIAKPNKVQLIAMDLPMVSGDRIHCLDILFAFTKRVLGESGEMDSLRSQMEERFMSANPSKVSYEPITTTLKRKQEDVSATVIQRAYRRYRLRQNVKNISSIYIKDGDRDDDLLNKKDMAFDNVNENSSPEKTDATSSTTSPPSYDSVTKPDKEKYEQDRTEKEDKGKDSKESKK
The target of a further test is hNav1.5 (Homo sapiens, UniProt Q14524). Nature of the test: cell-based.
Chain of hNav1.5 (Q14524 whole entry, looked up): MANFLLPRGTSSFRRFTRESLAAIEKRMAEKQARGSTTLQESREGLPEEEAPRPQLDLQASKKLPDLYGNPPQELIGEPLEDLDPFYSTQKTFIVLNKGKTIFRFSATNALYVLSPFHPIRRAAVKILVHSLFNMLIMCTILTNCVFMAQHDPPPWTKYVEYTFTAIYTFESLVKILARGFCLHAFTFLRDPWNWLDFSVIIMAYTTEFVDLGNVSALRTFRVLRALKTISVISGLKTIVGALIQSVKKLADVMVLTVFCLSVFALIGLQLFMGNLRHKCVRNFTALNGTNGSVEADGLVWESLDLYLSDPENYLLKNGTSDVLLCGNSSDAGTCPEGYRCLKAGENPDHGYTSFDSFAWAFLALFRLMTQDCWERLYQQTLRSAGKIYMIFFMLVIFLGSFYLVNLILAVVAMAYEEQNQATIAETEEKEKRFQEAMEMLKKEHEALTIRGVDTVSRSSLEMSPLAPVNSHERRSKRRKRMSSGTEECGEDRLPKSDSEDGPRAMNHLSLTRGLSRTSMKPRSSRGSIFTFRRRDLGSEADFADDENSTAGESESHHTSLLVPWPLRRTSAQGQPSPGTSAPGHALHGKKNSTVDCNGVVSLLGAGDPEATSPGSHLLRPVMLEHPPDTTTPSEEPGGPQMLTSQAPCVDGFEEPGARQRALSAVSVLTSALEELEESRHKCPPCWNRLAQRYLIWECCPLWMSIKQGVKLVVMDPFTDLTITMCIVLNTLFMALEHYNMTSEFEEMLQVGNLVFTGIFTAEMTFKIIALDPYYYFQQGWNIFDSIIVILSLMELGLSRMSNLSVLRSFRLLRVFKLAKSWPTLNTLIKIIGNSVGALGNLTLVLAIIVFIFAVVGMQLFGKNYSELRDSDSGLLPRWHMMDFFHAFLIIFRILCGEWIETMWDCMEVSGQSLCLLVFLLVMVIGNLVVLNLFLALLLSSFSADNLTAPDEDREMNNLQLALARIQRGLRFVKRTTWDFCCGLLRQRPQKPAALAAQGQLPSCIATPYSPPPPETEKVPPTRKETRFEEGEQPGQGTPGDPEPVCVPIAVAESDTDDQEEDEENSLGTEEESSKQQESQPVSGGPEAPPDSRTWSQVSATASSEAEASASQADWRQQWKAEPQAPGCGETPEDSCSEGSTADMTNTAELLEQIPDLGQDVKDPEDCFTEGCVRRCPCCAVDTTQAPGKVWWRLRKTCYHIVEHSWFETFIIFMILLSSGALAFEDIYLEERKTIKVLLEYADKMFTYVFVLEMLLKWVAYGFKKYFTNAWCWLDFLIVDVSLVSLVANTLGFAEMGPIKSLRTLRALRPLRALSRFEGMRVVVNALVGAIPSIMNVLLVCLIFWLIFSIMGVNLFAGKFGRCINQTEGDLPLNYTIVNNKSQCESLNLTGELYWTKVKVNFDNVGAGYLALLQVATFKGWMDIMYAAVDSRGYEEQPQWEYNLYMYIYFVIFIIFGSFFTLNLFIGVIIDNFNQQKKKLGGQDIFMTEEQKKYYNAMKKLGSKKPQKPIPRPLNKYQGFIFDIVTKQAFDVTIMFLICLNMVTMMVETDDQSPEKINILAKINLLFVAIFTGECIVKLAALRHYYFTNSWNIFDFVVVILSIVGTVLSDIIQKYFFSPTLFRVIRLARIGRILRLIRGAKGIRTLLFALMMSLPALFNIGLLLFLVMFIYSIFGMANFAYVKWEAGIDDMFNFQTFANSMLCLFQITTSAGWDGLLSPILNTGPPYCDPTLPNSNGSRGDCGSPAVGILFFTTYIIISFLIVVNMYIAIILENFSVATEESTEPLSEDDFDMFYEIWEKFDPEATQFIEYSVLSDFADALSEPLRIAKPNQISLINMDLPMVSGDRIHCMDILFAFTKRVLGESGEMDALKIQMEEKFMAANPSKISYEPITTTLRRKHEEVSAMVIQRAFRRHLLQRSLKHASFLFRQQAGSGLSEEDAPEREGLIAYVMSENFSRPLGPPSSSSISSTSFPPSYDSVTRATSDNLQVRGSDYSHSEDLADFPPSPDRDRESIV

Regarding `CC[C@H](C)[C@@H]1NC(=O)[C@@H]2CSSC[C@@H]3NC(=O)[C@H](C(C)C)NC(=O)[C@H](CC(C)C)NC(=O)[C@H](CC(N)=O)NC(=O)[C@@H]4CCCN4C(=O)[C@H](CCCNC(=N)N)NC(=O)[C@H](CSSC[C@H](NC(=O)[C@@H](N)CC(=O)O)C(=O)N[C@@H](CC(C)C)C(=O)NCC(=O)N[C@@H](CCSC)C(=O)N[C@@H](CC(C)C)C(=O)N[C@@H](CCCNC(=N)N)C(=O)N[C@@H](CCCCN)C(=O)N2)NC(=O)[C@H](CSSC[C@@H](C(=O)N[C@@H](CCCCN)C(=O)N[C@@H](Cc2ccc(O)cc2)C(=O)N[C@H](C(=O)N[C@@H](Cc2ccccc2)C(N)=O)C(C)C)NC(=O)[C@H](Cc2c[nH]c4ccccc24)NC(=O)[C@H](CCCCN)NC(=O)[C@H](Cc2c[nH]cn2)NC(=O)[C@H]([C@@H](C)O)NC(=O)[C@H](CCCNC(=N)N)NC(=O)[C@H](CO)NC3=O)NC(=O)[C@H](CCCCN)NC(=O)[C@H](CC(=O)O)NC(=O)[C@H](CC(N)=O)NC(=O)[C@H](CC(=O)O)NC(=O)[C@@H]2CCCN2C1=O` [[Met5;Leu6]GpTx-1(1-34)] (H-DCLGMLRKCIPDNDKCCRPNLVCSRTHKWCKYVF-NH2; disulfide 2-17, 9-23, 16-30), the IC50 on hNav1.7 (Nav1.7 Use IC50) was 0.27 µM; at hNav1.5 it was greater than 10 µM.

In the case of `CC[C@H](C)[C@@H]1NC(=O)[C@@H]2CSSC[C@@H]3NC(=O)[C@H](C(C)C)NC(=O)[C@H](CC(C)C)NC(=O)[C@H](CC(N)=O)NC(=O)[C@@H]4CCCN4C(=O)[C@H](CCCNC(=N)N)NC(=O)[C@H](CSSC[C@H](NC(=O)[C@@H](N)CC(=O)O)C(=O)N[C@@H](CC(C)C)C(=O)NCC(=O)N[C@@H](Cc4ccccc4)C(=O)N[C@@H](CCSC)C(=O)N[C@@H](CCCNC(=N)N)C(=O)N[C@@H](CCCCN)C(=O)N2)NC(=O)[C@H](CSSC[C@@H](C(=O)N[C@@H](CCCCN)C(=O)N[C@@H](Cc2ccc(O)cc2)C(=O)N[C@H](C(=O)N[C@@H](Cc2ccccc2)C(N)=O)C(C)C)NC(=O)[C@H](Cc2c[nH]c4ccccc24)NC(=O)[C@H](CCCCN)NC(=O)[C@H](Cc2c[nH]cn2)NC(=O)[C@H]([C@@H](C)O)NC(=O)[C@H](CCCNC(=N)N)NC(=O)[C@H](CO)NC3=O)NC(=O)[C@H](CCC(=O)O)NC(=O)[C@H](CC(=O)O)NC(=O)[C@H](CC(N)=O)NC(=O)[C@H](CC(=O)O)NC(=O)[C@@H]2CCCN2C1=O` [[Glu15]GpTx-1(1-34)] (H-DCLGFMRKCIPDNDECCRPNLVCSRTHKWCKYVF-NH2; disulfide 2-17, 9-23, 16-30), the IC50 was determined as 0.02 µM against hNav1.7 (Nav1.7 Use IC50) and 10 µM against hNav1.5.

`CC[C@H](C)[C@@H]1NC(=O)[C@@H]2CSSC[C@@H]3NC(=O)[C@H](C(C)C)NC(=O)[C@H](CC(C)C)NC(=O)[C@H](CC(N)=O)NC(=O)[C@@H]4CCCN4C(=O)[C@H](CCCNC(=N)N)NC(=O)[C@H](CSSC[C@H](NC(=O)[C@@H](N)CC(=O)O)C(=O)N[C@@H](CC(C)C)C(=O)NCC(=O)N[C@@H](Cc4ccccc4)C(=O)N[C@@H](CCSC)C(=O)N[C@@H](CCCNC(=N)N)C(=O)N[C@@H](CCCCN)C(=O)N2)NC(=O)[C@H](CSSC[C@@H](C(=O)N[C@@H](CCCCN)C(=O)N[C@@H](Cc2ccc(O)cc2)C(=O)N[C@H](C(=O)N[C@@H](Cc2ccccc2)C(N)=O)C(C)C)NC(=O)[C@H](Cc2c[nH]c4ccccc24)NC(=O)[C@H](CCCCN)NC(=O)[C@H](Cc2cnc[nH]2)NC(=O)[C@H](Cc2cnc[nH]2)NC(=O)[C@H](CCCNC(=N)N)NC(=O)[C@H](CO)NC3=O)NC(=O)[C@H](CCCCN)NC(=O)[C@H](CC(=O)O)NC(=O)[C@H](CC(N)=O)NC(=O)[C@H](CC(=O)O)NC(=O)[C@@H]2CCCN2C1=O` [[His26]GpTx-1(1-34)] (H-DCLGFMRKCIPDNDKCCRPNLVCSRHHKWCKYVF-NH2; disulfide 2-17, 9-23, 16-30): the IC50 against hNav1.7 (Nav1.7 Use IC50) was found to be 0.003 µM; against hNav1.5, 4.95 µM.

On to `CC[C@H](C)[C@@H]1NC(=O)[C@@H]2CSSC[C@@H]3NC(=O)[C@H](C(C)C)NC(=O)[C@H](CC(C)C)NC(=O)[C@H](CC(N)=O)NC(=O)[C@@H]4CCCN4C(=O)[C@H](CCCNC(=N)N)NC(=O)[C@H](CSSC[C@H](NC(=O)[C@@H](N)CC(=O)O)C(=O)N[C@@H](CC(C)C)C(=O)NCC(=O)N[C@@H](C)C(=O)N[C@@H](CCSC)C(=O)N[C@@H](CCCNC(=N)N)C(=O)N[C@@H](CCCCN)C(=O)N2)NC(=O)[C@H](CSSC[C@@H](C(=O)N[C@@H](CCCCN)C(=O)N[C@@H](Cc2cn(C)c4ccccc24)C(=O)N[C@H](C(=O)N[C@@H](Cc2ccccc2)C(N)=O)C(C)C)NC(=O)[C@H](Cc2c[nH]c4ccccc24)NC(=O)[C@H](CCCCN)NC(=O)[C@H](Cc2c[nH]cn2)NC(=O)[C@H]([C@@H](C)O)NC(=O)[C@H](CCCNC(=N)N)NC(=O)[C@H](CO)NC3=O)NC(=O)[C@H](CCCCN)NC(=O)[C@H](CC(=O)O)NC(=O)[C@H](CC(N)=O)NC(=O)[C@H](CC(=O)O)NC(=O)[C@@H]2CCCN2C1=O` [[Ala5;1′NMeW32]GpTx-1(1-34)] (H-DCLGAMRKCIPDNDKCCRPNLVCSRTHKWCK[Trp(1-Me)]VF-NH2; disulfide 2-17, 9-23, 16-30), for which the IC50 at hNav1.7 (Nav1.7 Use IC50) was 0.018 µM; against hNav1.5, greater than 10 µM.

Turning to `CC[C@H](C)[C@@H]1NC(=O)[C@@H]2CSSC[C@@H]3NC(=O)[C@H](C(C)C)NC(=O)[C@H](CC(C)C)NC(=O)[C@H](CC(N)=O)NC(=O)[C@@H]4CCCN4C(=O)[C@H](CCCNC(=N)N)NC(=O)[C@H](CSSC[C@H](NC(=O)[C@@H](N)CC(=O)O)C(=O)N[C@@H](CC(C)C)C(=O)NCC(=O)N[C@@H](C)C(=O)N[C@@H](Cc4cn(C)c5ccccc45)C(=O)N[C@@H](CCCNC(=N)N)C(=O)N[C@@H](CCCCN)C(=O)N2)NC(=O)[C@H](CSSC[C@@H](C(=O)N[C@@H](CCCCN)C(=O)N[C@@H](Cc2ccc(O)cc2)C(=O)N[C@H](C(=O)N[C@@H](Cc2ccccc2)C(N)=O)C(C)C)NC(=O)[C@H](Cc2c[nH]c4ccccc24)NC(=O)[C@H](CCCCN)NC(=O)[C@H](Cc2c[nH]cn2)NC(=O)[C@H]([C@@H](C)O)NC(=O)[C@H](CCCNC(=N)N)NC(=O)[C@H](CO)NC3=O)NC(=O)[C@H](CCCCN)NC(=O)[C@H](CC(=O)O)NC(=O)[C@H](CC(N)=O)NC(=O)[C@H](CC(=O)O)NC(=O)[C@@H]2CCCN2C1=O` [[Ala5;1′NMeW6]GpTx-1(1-34)], the values for the IC50 against hNav1.7 (Nav1.7 Use IC50) and at hNav1.5 were 0.051 µM and greater than 10 µM, respectively.

`CSCC[C@@H]1NC(=O)[C@H](C)NC(=O)CNC(=O)[C@H](CC(C)C)NC(=O)[C@@H](NC(=O)[C@@H](N)CC(=O)O)CSSC[C@@H]2NC(=O)[C@@H]3CSSC[C@@H](C(=O)N[C@@H](CCCCN)C(=O)N[C@@H](Cc4ccc(O)cc4)C(=O)N[C@H](C(=O)N[C@@H](Cc4ccccc4)C(N)=O)C(C)C)NC(=O)[C@H](Cc4c[nH]c5ccccc45)NC(=O)[C@H](CCCCN)NC(=O)[C@H](Cc4c[nH]cn4)NC(=O)[C@H]([C@@H](C)O)NC(=O)[C@H](CCCNC(=N)N)NC(=O)[C@H](CO)NC(=O)[C@H](CSSC[C@H](NC(=O)[C@H](CCCCN)NC(=O)[C@H](CCCNC(=N)N)NC1=O)C(=O)N[C@@H](CC(=O)O)C(=O)N1CCC[C@H]1C(=O)N[C@@H](CC(=O)O)C(=O)N[C@@H](CC(N)=O)C(=O)N[C@@H](CC(=O)O)C(=O)N[C@@H](CCCCN)C(=O)N3)NC(=O)[C@H](C(C)C)NC(=O)[C@H](CC(C)C)NC(=O)[C@H](CC(N)=O)NC(=O)[C@@H]1CCCN1C(=O)[C@H](CCCNC(=N)N)NC2=O` [[Ala5;Asp10]GpTx-1(1-34)] (H-DCLGAMRKCDPDNDKCCRPNLVCSRTHKWCKYVF-NH2; disulfide 2-17, 9-23, 16-30): the IC50 at hNav1.7 (Nav1.7 Use IC50) is 0.05 µM; on hNav1.5, greater than 10 µM.

For `CC[C@H](C)[C@@H]1NC(=O)[C@@H]2CSSC[C@@H]3NC(=O)[C@H](C(C)C)NC(=O)[C@H](CC(C)C)NC(=O)[C@H](CC(N)=O)NC(=O)[C@@H]4CCCN4C(=O)[C@H](CCCNC(=N)N)NC(=O)[C@H](CSSC[C@H](NC(=O)[C@@H](N)CC(=O)O)C(=O)N[C@@H](CC(C)C)C(=O)NCC(=O)N[C@@H](CC(C)C)C(=O)N[C@@H](CC(C)C)C(=O)N[C@@H](CCCNC(=N)N)C(=O)N[C@@H](CCCCN)C(=O)N2)NC(=O)[C@H](CSSC[C@@H](C(=O)N[C@@H](CCCCN)C(=O)N[C@@H](Cc2ccc(O)cc2)C(=O)N[C@H](C(=O)N[C@@H](Cc2ccccc2)C(N)=O)C(C)C)NC(=O)[C@H](Cc2c[nH]c4ccccc24)NC(=O)[C@H](CCCCN)NC(=O)[C@H](Cc2c[nH]cn2)NC(=O)[C@H]([C@@H](C)O)NC(=O)[C@H](CCCNC(=N)N)NC(=O)[C@H](CO)NC3=O)NC(=O)[C@H](CCCCN)NC(=O)[C@H](CC(=O)O)NC(=O)[C@H](CC(N)=O)NC(=O)[C@H](CC(=O)O)NC(=O)[C@@H]2CCCN2C1=O` [[Leu5,6]GpTx-1(1-34)] (H-DCLGLLRKCIPDNDKCCRPNLVCSRTHKWCKYVF-NH2; disulfide 2-17, 9-23, 16-30), the half-maximal inhibitory concentration (IC50) against hNav1.7 (Nav1.7 Use IC50) was 0.011 µM; on hNav1.5 it was greater than 10 µM.

Turning to `CC[C@H](C)[C@@H]1NC(=O)[C@@H]2CSSC[C@@H]3NC(=O)[C@H](C(C)C)NC(=O)[C@H](CC(C)C)NC(=O)[C@H](CC(N)=O)NC(=O)[C@@H]4CCCN4C(=O)[C@H](CCCNC(=NC)NC)NC(=O)[C@H](CSSC[C@H](NC(=O)[C@@H](N)CC(=O)O)C(=O)N[C@@H](CC(C)C)C(=O)NCC(=O)N[C@@H](Cc4ccccc4)C(=O)N[C@@H](CCSC)C(=O)N[C@@H](CCCNC(=N)N)C(=O)N[C@@H](CCCCN)C(=O)N2)NC(=O)[C@H](CSSC[C@@H](C(=O)N[C@@H](CCCCN)C(=O)N[C@@H](Cc2ccc(O)cc2)C(=O)N[C@H](C(=O)N[C@@H](Cc2ccccc2)C(N)=O)C(C)C)NC(=O)[C@H](Cc2c[nH]c4ccccc24)NC(=O)[C@H](CCCCN)NC(=O)[C@H](Cc2c[nH]cn2)NC(=O)[C@H]([C@@H](C)O)NC(=O)[C@H](CCCNC(=N)N)NC(=O)[C@H](CO)NC3=O)NC(=O)[C@H](CCCCN)NC(=O)[C@H](CC(=O)O)NC(=O)[C@H](CC(N)=O)NC(=O)[C@H](CC(=O)O)NC(=O)[C@@H]2CCCN2C1=O` [[SDMA18]GpTx-1(1-34)], the IC50 on hNav1.7 (read-out: Nav1.7 Use IC50) amounted to 0.006 µM; against hNav1.5, 10 µM.
